Experimental findings from PubChem BioAssay (NCI) are described below.

What all share (test): NCI anticancer screen, dose series, 48 h
Test [1] deals with BT-549 breast.
The subject of test [2] is HL-60(TB) leukemia.
Test [3] concerns HOP-62 NSCLC.
Test [4] deals with HS 578T breast.
The subject of test [5] is KM12 colon.
The subject of test [6] is M14 melanoma.
Test [7] relates to MDA-MB-435.
The subject of test [8] is MOLT-4 leukemia.
For test [9], the system named is NCI-H460 lung.
Test [10] has as its system NCI-H522 lung.
Test [11] concerns OVCAR-3 ovarian.
In test [12] the test system is OVCAR-4 ovarian.
The subject of test [13] is RPMI-8226 leukemia.
The subject of test [14] is RXF 393 renal.
The subject of test [15] is SF-268 CNS.
For test [16], the system named is UO-31 renal.
Test [17] concerns SNB-19 CNS.
The test system of test [18] is T-47D breast.

Each structure is given as a SMILES string.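 Dose response: 5 concentrations. Exposure: 48 h. Format: 96-well plates. Endpoint: linear interpolation; highest concentration if not reached. TGI: concentration producing complete growth inhibition.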

Turning to `NCCCn1c2ccccc2c2c3c(c4c(c21)CCC(O)CC4)C(=O)NC3=O` (stereo unspecified), the TGI in test [1] is 20.2 µM; in [2], 22 µM; in test [3], 15.9 µM; in [4] it was 20.9 µM; in test [5], 10.7 µM; in test [6] it was 18.2 µM. The TGI in test [7] was found to be 13.6 µM; in test [8], 11.2 µM; in test [9], 14 µM; in test [10] it was 13.2 µM; in test [11], 12.2 µM; in [12], 5.44 µM. Further, the TGI in [13] came to 14.6 µM; in test [14], 13.6 µM; in test [15] it was 4.43 µM; in [16], 19.9 µM.
`COc1ccccc1C1SCC(=O)N1c1ccc(-c2ccc(-n3c(-c4ccccc4)nc4ccccc4c3=O)cc2)cc1` (stereo unspecified): the TGI in test [1], in test [2], in test [3], in [4], in test [5] and in [6] was more than 100 µM each time. Besides, the TGI in test [7], in test [8], in test [9], in test [10], in test [11] and in [13] was more than 100 µM throughout. For the same compound, the TGI in [15], in [17], in test [18] and in test [16] was more than 100 µM each time.
`COc1ccc(O[C@H](COCc2ccccc2)C[C@@H]2COC(C)(C)O2)cc1`: the TGI in test [1], in test [3], in test [5], in test [6], in [7] and in test [8] was more than 100 µM each time. Further, the TGI in test [9], in [10], in test [11], in test [12], in [13] and in [14] was more than 100 µM throughout. For the same compound, the TGI in test [15], in test [17] and in [16] was more than 100 µM throughout.
Turning to `CC12CCC(C(=O)O1)C(C)(C)O2` (stereo unspecified), the TGI in [1], in [2], in [3], in test [4], in test [5] and in [6] was more than 100 µM in each case. For the same compound, the TGI in [7], in test [8], in test [9], in [10], in test [11] and in test [12] was more than 100 µM in each case. Besides, the TGI in test [13], in test [14], in test [15], in test [17] and in test [16] was more than 100 µM in each case.
Consider `Cc1ccsc1/C=N/Nc1cc(C)c2cccc(C)c2n1`, for which the TGI in [1] is more than 100 µM; in test [2], 71.2 µM; in [3], more than 100 µM; in test [4] it was more than 100 µM; in test [5], more than 100 µM; in [6] it was more than 100 µM. Also, the TGI in [7], in test [11], in test [12], in test [15], in test [17] and in test [18] was more than 100 µM each time.
On to `O=c1/c(=C\c2ccccc2)sc2n1C(c1ccccc1)C1(O)CCCCC1N=2` (stereo unspecified), for which the TGI in test [1], in test [2], in [3], in [6], in test [7] and in test [8] was more than 100 µM in each case. Moreover, the TGI in test [9], in test [10], in test [11], in test [12], in [13] and in test [15] was more than 100 µM each time. Moreover, the TGI in test [17], in test [18] and in test [16] was more than 100 µM throughout.
Regarding `O=C1/C(=C\c2cccc(Oc3ccccc3)c2)S(=O)(=O)C(c2ccccc2)N1c1ccccc1Cl` (stereo unspecified), the TGI in test [1] is more than 100 µM; in [2], 33.6 µM; in test [3] it was more than 100 µM; in test [5], more than 100 µM; in [6] it was 89.1 µM; in [7] it was 87 µM. Besides, the TGI in test [8] is 48.9 µM; in test [9], more than 100 µM; in test [10], 49.1 µM; in [11], 64.3 µM; in test [12] it was 98.1 µM; in test [13], 56.8 µM. For the same compound, the TGI was more than 100 µM in test [14], 64 µM in [17], more than 100 µM in [18] and more than 100 µM in test [16].
In the case of `Cc1ccc(S(=O)(=O)/N=C(\NN)Nc2ccc(Cl)cc2)cc1`, the TGI in test [1], in [2], in test [3], in test [5], in test [6] and in test [8] was more than 100 µM throughout. Further, the TGI in test [9], in [11], in test [12], in [13], in test [14] and in test [17] was more than 100 µM each time. The TGI in test [18] and in test [16] was more than 100 µM throughout.
In the case of `CCCCc1c(C(=O)OC(C)(C)C)cc(C#Cc2cc(C(=O)OC(C)(C)C)c(CCCC)c(C(=O)OC(C)(C)C)c2)cc1C(=O)OC(C)(C)C`, the TGI in test [1], in [3], in test [5], in test [6], in test [7] and in test [9] was more than 100 µM each time. The TGI in [10], in [11], in test [12], in test [13], in test [15] and in [17] was more than 100 µM throughout. Besides, the TGI in [18] and in [16] was more than 100 µM in each case.
Regarding `COC(=O)c1cc(NC(=O)c2cc(NC(=O)c3cc([N+](=O)[O-])cn3C)cn2C)cn1C`, the TGI in [1], in test [2], in test [3], in test [5], in test [6] and in test [7] was more than 100 µM in each case. Further, the TGI in [8], in [9], in test [11], in [12], in test [13] and in test [14] was more than 100 µM each time. In addition, the TGI in [15], in test [17], in test [18] and in test [16] was more than 100 µM in each case.
`Cc1ccc(OCC2OC(n3cnc4c(N(C)C)nc(Br)nc43)CC2Oc2ccc(C)cc2)cc1` (stereo unspecified): the TGI in test [1], in test [2], in [4], in [5], in [6] and in [7] was more than 100 µM throughout. In addition, the TGI in test [9], in test [10], in test [11], in [12], in test [13] and in [15] was more than 100 µM throughout. For the same compound, the TGI in [17], in test [18] and in [16] was more than 100 µM in each case.
For the compound `O=C(Nc1nc2c(=O)[nH]cnc2s1)c1ccccc1`, the TGI in test [1], in [2], in [3], in test [4], in [7] and in test [9] was more than 100 µM throughout. Moreover, the TGI in [10], in test [11], in test [12], in test [14], in [15] and in test [17] was more than 100 µM each time. In test [16], this compound had a TGI of more than 100 µM.
In the case of `CC(C)[C@@H]1CC[C@@H](C)C[C@H]1OC(=O)/C=C1/C2C=CC(O2)C1C(=O)O[C@@H]1C[C@H](C)CC[C@H]1C(C)C` (stereo partly specified), the TGI in test [2], in test [3], in [4], in test [5], in [6] and in test [7] was more than 100 µM each time. For the same compound, the TGI in [8], in test [9], in test [10], in test [11], in test [12] and in test [13] was more than 100 µM each time. In addition, the TGI in test [14], in test [15], in test [17], in test [18] and in [16] was more than 100 µM throughout.
Turning to `CN(C(=O)Cc1ccc(Cl)c(Cl)c1)[C@H]1CCCC[C@@H]1[N+]1(C)CCCC1`, the TGI in [1], in test [3], in test [4], in test [5], in [6] and in [7] was more than 100 µM in each case. The TGI in [8], in test [10], in test [11], in test [12], in test [13] and in test [15] was more than 100 µM each time. For the same compound, the TGI in test [17], in test [18] and in test [16] was more than 100 µM throughout.
As to `COc1cc2c(c(OC)c1OC)-c1ccc(SC)c(=O)cc1[C@@H](OC(C)=O)CC2`, the TGI in [1] is more than 100 µM; in test [2], 0.0242 µM; in test [3], more than 100 µM; in [4], more than 100 µM; in test [5], more than 48.5 µM; in test [6] it was more than 100 µM. The TGI in test [8] was more than 100 µM; in test [9], more than 100 µM; in test [12], more than 100 µM; in [13], more than 59.9 µM; in test [14] it was more than 100 µM; in [15], 25.1 µM. In addition, the TGI in test [17] is more than 100 µM; in test [18] it was more than 100 µM; in test [16], more than 52.5 µM.
Consider `COc1ccc(N2C(=Nc3ccccc3)SC(=N/S(=O)(=O)c3ccccc3)/C2=N\S(=O)(=O)c2ccccc2)cc1`, for which the TGI in [1] is 54.2 µM; in test [2] it was 33.4 µM; in test [3], 98.5 µM; in test [4], 55.7 µM; in test [5], 88.7 µM; in test [6] it was more than 100 µM. The TGI is 45.6 µM in test [8]; 26.2 µM in test [9]; 50.8 µM in [13]; 28.2 µM in [14]; 57.5 µM in test [17]; 20.1 µM in test [18]. The compound further had a TGI in [16] of 55.3 µM.
In the case of `C=CC1ON(Cc2ccccc2)CCc2cc(OC)c(OC)cc21` (stereo unspecified), the TGI in [1] was more than 100 µM; in test [2] it was 94.4 µM; in test [3] it was more than 100 µM; in [4] it was more than 100 µM; in test [5] it was more than 100 µM; in test [6], more than 100 µM. For the same compound, the TGI in test [7] is 84.9 µM; in [8] it was more than 100 µM; in test [9], more than 100 µM; in [10], more than 100 µM; in test [11] it was more than 100 µM; in test [13], more than 100 µM. In addition, the TGI in test [15], in test [17], in test [18] and in [16] was more than 100 µM throughout.
Regarding `Cn1c(C(C#N)c2nc(Cl)ncc2Br)nc2ccccc21` (stereo unspecified), the TGI in test [1], in test [3], in test [5], in test [6], in test [7] and in [8] was more than 100 µM each time. Also, the TGI in test [9], in test [10], in [11], in [12], in test [13] and in [14] was more than 100 µM in each case. The TGI in test [15], in test [17], in [18] and in test [16] was more than 100 µM throughout.
